According to US20100152152A1, “Therapeutic Use of Nefopam” (priority 2005, published 2010):
Structures can show the parent of a compound that is named as a salt. Marks after values point to notes of the source that are not given here.

Legend:
[1] = conventional release preparations; cited from earlier work
Mice = assay: Marble Burying Test (anxiolytic/tranquillizing activity); assay type: in vivo; details: 30 minutes before the test, 30 minute test
Description: Nefopam and (+)-nefopam were evaluated in the Marble Burying Test, a model which detects anxiolytic/tranquillizing activity. This is a general model for affective disorders.
The method follows that described by Broekkamp et al. (1986 Eur. J. Pharmacol., 126, 223-229. Mice exposed to novel objects (marbles) will bury them in the sawdust floor covering. Anxiolytics decrease the number of marbles buried at non-sedative doses.
Mice are individually placed in transparent plastic cages (33×21×18 cm) with 5 cm of sawdust on the floor and 25 marbles grouped in the centre of each cage. Each test cage is covered with an inverted plastic covering. Each test cage, together with the marbles, is impregnated with mouse odor beforehand, by leaving 10 mice in the cage for 15 minutes. These mice then play no further role in the experiment. The number of marbles covered by sawdust (⅔ or more) is counted at the end of a 30 minute test.
All compounds were administered i.p. 30 minutes before the test, and compared with a vehicle control group. Clobazam (8 mg/kg i.p.), administered under the same experimental conditions, was used as reference substance.

[2] = system: dopamine, norepinephrine and serotonin uptake; details: in vitro and in vivo; Fasmer et al., 1987; Rosland and Hole, 1990; Mather at al., 2001; cited from earlier work

SMILES	elimination half-life [1]	Number of marbles buried (% change from ctrl) (Mice; 10 mg/kg ip)	Number of marbles buried (% change from ctrl) (Mice; 20 mg/kg ip)	Number of marbles buried (% change from ctrl) (Mice; 40 mg/kg ip)	order of potency (analgesic and dopamine, norepinephrine and serotonin uptake inhibitory properties) [2]	Number of marbles buried (% change from ctrl) (Mice; 32 mg/kg ip)
CN1CCOC(c2ccccc2)c2ccccc2C1 (racemic) [Nefopam, 5-methyl-1-phenyl-3,4,5,6-tetrahydro-1H-2,5-benzoxazocine hydrochloride]	four	−66* % change from ctrl	−98* % change from ctrl	−100* % change from ctrl	–	–
CN1CCO[C@@H](c2ccccc2)c2ccccc2C1 [(+)-nefopam]	–	−56* % change from ctrl	−99* % change from ctrl	−100* % change from ctrl	(+)-nefopam>(±)-nefopam>(−)-nefopam	–
CN1C(=O)CC(=O)N(c2ccccc2)c2cc(Cl)ccc21 [Clobazam]	–	–	–	–	–	−75* % change from ctrl
